Two compounds from ChEMBL document CHEMBL5303762, “Data for DCP probe BI-8668” (2023) can be followed below.

Structures are written as SMILES.

The target in test [1] is T1, Muscarinic acetylcholine receptor M2 (Homo sapiens) (UniProt P08172).
T1 sequence (whole entry): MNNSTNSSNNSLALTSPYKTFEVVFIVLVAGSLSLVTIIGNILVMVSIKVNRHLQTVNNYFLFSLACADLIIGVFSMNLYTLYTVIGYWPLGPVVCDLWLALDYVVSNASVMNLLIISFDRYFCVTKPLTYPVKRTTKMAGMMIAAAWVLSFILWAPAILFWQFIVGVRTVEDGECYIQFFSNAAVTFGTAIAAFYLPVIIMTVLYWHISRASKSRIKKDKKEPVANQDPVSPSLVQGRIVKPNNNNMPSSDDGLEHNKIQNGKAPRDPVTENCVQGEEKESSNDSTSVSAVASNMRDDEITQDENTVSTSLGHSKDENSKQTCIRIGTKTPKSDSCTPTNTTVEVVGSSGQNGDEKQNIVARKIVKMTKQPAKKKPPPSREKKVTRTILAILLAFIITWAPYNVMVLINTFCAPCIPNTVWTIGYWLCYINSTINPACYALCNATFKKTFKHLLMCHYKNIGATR
The experiment in a line: M2/H Eurofins SafetyScreen44 (BI). Conditions: filed as antagonist, Compound concentration 10.0 uM.

The target in test [2] is GABA-A receptor; anion channel (Rattus norvegicus) (UniProt O09028+P15431+P18506+P18508+P19969+P20236+P23574+P23576+P28471+P28473+P30191+P62813+P63079+P63138+Q91ZM7+Q9ES14). The experiment in a line: BZD/CENTR/R Eurofins SafetyScreen44 (BI). The test is classed as protein-complex assay. Conditions: Compound concentration 10.0 uM.
The target of test [3] is Delta-type opioid receptor (Homo sapiens) (UniProt P41143). The experiment in a line: DELTA2/H Eurofins SafetyScreen44 (BI). Conditions: Compound concentration 10.0 uM.
Test [4] concerns the target Glutamate NMDA receptor (Rattus norvegicus) (UniProt P35439+Q00959+Q00960+Q00961+Q62645+Q8VHN2+Q9R1M7). The experiment in a line: NMDA/R Eurofins SafetyScreen44 (BI). In kind it is protein-complex assay. Conditions: Compound concentration 10.0 uM.
The target in test [5] is Cannabinoid receptor 2 (Homo sapiens) (UniProt P34972). Nature of the test: CB2/PERIPH/H Eurofins SafetyScreen44 (BI). Particulars: Compound concentration 10.0 uM.
In test [6] the target is Glucocorticoid receptor (Homo sapiens) (UniProt P04150). Nature of the test: GCORTICOID/H Eurofins SafetyScreen44 (BI). Conditions: Compound concentration 10.0 uM.
Test [7] has as its target T2, Muscarinic acetylcholine receptor M1 (Homo sapiens) (UniProt P11229).
T2 sequence (whole entry): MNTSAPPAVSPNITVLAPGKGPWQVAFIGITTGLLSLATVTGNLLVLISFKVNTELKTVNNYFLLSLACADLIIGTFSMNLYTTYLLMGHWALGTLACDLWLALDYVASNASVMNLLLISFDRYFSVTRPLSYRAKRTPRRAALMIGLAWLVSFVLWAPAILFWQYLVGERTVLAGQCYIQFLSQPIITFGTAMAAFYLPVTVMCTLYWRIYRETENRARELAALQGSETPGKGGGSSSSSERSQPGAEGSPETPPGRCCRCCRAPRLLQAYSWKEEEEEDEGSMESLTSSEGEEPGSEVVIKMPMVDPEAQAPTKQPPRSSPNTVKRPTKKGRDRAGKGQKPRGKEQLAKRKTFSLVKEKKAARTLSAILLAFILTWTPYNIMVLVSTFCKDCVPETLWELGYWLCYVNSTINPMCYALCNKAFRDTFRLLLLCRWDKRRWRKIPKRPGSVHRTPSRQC
The experiment in a line: M1/H Eurofins SafetyScreen44 (BI). Conditions: Compound concentration 10.0 uM.

The target in test [8] is Androgen receptor (Homo sapiens) (UniProt P10275). The experiment in a line: ANDROGEN/H Eurofins SafetyScreen44 (BI). Conditions: Compound concentration 10.0 uM.
The target of test [9] is Cholecystokinin receptor type A (Homo sapiens) (UniProt P32238). Nature of the test: CCKA/H Eurofins SafetyScreen44 (BI). Particulars: Compound concentration 10.0 uM.
For test [10], the target named is Muscarinic acetylcholine receptor M3 (Homo sapiens) (UniProt P20309). Nature of the test: M3/H Eurofins SafetyScreen44 (BI). Particulars: Compound concentration 10.0 uM.
For test [11], the target named is T3, 5-hydroxytryptamine receptor 1A (Homo sapiens) (UniProt P08908).
T3 sequence (whole entry): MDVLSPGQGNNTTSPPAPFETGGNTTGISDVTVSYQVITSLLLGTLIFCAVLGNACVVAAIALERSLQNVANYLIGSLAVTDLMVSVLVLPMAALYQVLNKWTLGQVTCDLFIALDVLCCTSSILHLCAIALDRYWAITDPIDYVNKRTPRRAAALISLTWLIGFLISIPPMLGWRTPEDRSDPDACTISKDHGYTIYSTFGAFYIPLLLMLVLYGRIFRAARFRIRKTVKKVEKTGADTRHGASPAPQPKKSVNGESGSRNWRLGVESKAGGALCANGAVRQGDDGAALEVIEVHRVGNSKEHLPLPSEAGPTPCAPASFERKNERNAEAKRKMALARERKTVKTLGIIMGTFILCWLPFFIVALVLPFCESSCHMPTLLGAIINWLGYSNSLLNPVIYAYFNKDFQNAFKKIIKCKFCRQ
The experiment in a line: 5HT1A/H Eurofins SafetyScreen44 (BI). Particulars: Compound concentration 10.0 uM.

Test [12] has as its target Histamine H2 receptor (Homo sapiens) (UniProt P25021). Nature of the test: H2/APT/HS Eurofins SafetyScreen44 (BI). Particulars: filed as antagonist, Compound concentration 10.0 uM.
The target of test [13] is T4, Alpha-1A adrenergic receptor (Homo sapiens) (UniProt P35348).
T4 sequence (whole entry): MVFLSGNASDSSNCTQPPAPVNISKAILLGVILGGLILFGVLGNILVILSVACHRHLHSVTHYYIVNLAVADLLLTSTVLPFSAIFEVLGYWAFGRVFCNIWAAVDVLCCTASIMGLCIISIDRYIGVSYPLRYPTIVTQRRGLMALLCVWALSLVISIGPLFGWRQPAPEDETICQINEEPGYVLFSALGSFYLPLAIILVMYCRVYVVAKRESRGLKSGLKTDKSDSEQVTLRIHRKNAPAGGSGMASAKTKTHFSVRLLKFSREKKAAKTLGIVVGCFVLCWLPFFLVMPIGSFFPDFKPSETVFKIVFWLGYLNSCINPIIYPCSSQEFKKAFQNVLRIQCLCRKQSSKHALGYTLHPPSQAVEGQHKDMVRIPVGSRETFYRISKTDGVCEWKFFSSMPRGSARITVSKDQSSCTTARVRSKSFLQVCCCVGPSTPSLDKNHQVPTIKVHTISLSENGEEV
The experiment in a line: ALPHA1AH_ANTAG Eurofins SafetyScreen44 (BI). Particulars: filed as antagonist, Compound concentration 10.0 uM.

Test [14] deals with Angiotensin-converting enzyme (Homo sapiens) (UniProt P12821). The experiment in a line: ACE(HU_AMTCH400) Eurofins SafetyScreen44 (BI).
Angiotensin-converting enzyme (Homo sapiens), sequence (P12821 whole entry): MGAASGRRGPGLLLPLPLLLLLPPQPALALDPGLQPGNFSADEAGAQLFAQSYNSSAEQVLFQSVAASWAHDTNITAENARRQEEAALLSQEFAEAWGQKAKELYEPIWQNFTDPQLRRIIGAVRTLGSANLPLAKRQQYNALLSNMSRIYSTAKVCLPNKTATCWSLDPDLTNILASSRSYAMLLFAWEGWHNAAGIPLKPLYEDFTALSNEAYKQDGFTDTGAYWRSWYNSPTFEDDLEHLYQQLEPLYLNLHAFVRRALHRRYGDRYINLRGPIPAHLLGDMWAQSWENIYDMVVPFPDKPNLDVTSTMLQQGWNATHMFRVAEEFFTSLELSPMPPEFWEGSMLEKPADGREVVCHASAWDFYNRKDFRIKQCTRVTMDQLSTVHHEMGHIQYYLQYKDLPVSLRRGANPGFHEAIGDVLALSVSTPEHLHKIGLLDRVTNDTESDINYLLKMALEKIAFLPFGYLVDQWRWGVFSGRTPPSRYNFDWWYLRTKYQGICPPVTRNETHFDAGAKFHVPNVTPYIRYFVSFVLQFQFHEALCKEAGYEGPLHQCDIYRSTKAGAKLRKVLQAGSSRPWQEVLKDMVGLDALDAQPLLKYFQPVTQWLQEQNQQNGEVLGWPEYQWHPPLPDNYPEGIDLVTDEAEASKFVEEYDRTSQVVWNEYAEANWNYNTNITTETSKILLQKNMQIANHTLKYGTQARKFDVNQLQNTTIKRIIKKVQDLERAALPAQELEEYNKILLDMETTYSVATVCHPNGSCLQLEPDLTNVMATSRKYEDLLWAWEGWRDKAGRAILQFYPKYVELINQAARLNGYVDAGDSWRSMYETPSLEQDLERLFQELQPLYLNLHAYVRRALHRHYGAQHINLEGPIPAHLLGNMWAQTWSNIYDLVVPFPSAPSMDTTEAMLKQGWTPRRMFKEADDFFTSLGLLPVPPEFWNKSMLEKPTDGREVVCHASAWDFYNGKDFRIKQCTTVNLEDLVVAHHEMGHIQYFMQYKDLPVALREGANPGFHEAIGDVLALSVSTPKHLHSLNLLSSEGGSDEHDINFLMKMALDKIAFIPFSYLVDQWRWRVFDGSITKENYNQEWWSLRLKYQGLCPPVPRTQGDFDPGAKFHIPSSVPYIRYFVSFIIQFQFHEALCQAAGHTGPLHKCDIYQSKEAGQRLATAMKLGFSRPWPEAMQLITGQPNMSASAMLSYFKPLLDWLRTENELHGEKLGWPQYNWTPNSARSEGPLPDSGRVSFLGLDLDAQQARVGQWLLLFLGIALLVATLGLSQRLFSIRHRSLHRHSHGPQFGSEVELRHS

Histamine H2 receptor (Homo sapiens), sequence (P25021 whole entry): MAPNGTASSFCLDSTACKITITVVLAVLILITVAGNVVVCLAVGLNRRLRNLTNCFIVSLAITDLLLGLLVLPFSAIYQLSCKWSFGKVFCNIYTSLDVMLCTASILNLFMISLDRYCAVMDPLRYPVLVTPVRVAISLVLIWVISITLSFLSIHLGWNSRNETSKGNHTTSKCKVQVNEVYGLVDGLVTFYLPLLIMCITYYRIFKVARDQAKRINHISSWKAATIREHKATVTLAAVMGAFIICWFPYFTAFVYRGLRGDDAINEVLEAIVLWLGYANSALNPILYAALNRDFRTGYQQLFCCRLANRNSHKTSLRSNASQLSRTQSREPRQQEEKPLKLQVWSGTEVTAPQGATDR
Glucocorticoid receptor (Homo sapiens), sequence (P04150 whole entry): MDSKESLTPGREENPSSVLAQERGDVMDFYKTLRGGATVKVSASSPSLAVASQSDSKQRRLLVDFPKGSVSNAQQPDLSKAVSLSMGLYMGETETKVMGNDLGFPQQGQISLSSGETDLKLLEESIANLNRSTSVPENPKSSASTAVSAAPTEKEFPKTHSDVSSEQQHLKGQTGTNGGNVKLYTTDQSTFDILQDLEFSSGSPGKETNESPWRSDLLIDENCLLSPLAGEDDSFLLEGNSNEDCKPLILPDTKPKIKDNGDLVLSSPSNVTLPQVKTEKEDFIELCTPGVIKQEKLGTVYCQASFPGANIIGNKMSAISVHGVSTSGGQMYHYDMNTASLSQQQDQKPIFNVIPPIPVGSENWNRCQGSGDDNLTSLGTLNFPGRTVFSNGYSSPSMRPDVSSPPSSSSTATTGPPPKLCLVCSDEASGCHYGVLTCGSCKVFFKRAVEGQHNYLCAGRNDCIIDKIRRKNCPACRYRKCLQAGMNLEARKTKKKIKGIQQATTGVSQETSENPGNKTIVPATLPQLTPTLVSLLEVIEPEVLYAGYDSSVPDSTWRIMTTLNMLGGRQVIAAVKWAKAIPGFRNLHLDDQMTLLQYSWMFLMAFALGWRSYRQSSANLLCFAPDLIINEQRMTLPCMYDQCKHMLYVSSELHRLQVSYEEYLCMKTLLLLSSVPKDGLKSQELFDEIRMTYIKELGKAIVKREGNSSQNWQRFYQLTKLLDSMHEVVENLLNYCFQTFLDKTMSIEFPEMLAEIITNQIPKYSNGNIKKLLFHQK
Androgen receptor (Homo sapiens), sequence (P10275 whole entry): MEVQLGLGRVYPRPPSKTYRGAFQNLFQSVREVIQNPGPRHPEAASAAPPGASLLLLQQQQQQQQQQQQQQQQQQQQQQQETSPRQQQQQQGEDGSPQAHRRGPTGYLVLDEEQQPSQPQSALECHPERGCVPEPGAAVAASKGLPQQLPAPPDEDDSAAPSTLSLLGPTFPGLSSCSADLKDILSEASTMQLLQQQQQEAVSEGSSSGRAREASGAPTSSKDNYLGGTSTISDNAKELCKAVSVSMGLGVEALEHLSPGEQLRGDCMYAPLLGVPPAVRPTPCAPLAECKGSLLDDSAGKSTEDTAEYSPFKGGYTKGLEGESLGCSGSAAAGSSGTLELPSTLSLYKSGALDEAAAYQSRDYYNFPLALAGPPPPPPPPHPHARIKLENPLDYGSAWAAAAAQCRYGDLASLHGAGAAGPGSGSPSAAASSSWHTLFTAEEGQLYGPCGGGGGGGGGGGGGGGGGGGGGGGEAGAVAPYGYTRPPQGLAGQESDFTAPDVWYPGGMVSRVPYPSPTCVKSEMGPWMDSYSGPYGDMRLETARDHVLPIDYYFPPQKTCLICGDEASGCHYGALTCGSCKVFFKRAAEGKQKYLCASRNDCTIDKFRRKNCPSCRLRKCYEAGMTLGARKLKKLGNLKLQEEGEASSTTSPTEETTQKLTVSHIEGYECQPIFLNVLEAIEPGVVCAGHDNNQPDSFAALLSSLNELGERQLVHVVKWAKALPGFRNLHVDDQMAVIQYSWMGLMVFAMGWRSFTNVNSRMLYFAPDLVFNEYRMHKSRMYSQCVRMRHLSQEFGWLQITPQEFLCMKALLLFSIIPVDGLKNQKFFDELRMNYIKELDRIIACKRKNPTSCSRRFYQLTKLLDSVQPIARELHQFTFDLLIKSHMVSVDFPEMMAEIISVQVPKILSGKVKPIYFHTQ
Muscarinic acetylcholine receptor M3 (Homo sapiens), sequence (P20309 whole entry, looked up): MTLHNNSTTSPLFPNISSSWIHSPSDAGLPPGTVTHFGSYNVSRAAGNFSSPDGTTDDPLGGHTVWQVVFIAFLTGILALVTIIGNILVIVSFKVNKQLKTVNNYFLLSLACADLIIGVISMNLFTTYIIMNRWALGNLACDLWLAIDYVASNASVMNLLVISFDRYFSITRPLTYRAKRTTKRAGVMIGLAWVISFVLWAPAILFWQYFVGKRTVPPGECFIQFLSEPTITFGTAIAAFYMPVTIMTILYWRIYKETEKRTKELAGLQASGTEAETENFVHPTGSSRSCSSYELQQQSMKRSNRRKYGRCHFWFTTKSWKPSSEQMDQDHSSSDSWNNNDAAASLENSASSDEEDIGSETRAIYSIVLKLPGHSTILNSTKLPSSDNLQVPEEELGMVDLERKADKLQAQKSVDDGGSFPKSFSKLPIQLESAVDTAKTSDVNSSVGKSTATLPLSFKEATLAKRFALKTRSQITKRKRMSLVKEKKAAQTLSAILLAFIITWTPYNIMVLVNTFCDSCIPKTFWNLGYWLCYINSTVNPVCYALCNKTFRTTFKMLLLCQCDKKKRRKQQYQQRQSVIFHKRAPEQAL
Cholecystokinin receptor type A (Homo sapiens), sequence (P32238 whole entry): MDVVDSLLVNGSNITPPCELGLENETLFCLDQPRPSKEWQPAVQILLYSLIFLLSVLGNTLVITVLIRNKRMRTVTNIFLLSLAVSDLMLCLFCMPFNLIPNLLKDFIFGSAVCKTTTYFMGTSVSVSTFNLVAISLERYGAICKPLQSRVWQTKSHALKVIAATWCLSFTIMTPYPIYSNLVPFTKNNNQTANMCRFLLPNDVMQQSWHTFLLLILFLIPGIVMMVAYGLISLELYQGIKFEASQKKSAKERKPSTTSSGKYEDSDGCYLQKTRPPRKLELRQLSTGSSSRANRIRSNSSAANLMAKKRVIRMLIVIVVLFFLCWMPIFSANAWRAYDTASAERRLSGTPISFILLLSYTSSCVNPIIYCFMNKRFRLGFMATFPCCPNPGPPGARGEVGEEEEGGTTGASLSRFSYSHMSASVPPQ
Cannabinoid receptor 2 (Homo sapiens), sequence (P34972 whole entry): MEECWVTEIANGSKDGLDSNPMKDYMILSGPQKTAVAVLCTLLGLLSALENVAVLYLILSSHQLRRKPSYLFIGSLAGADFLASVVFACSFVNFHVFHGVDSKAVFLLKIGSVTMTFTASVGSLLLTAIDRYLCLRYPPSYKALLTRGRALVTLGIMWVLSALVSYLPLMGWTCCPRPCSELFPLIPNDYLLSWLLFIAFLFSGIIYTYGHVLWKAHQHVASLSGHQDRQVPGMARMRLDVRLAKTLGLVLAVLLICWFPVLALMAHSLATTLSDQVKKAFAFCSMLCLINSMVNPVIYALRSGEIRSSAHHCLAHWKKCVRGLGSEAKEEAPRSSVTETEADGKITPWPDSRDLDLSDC

In the case of `CCn1c(CNC(=O)c2nc(Cl)cnc2N)[n+](CC)c2ccc(C(=O)N(C)CCN(C)C)cc21`, the residual activity was 36% in test [1]; 130% in test [2]; 95% in test [3]; 105% in [4]; 119% in [5]; 115% in [6]. Further, the residual activity in test [7] is 50%; in test [8] it was 106%; in test [9] it was 84%; in test [10], 20%; in [11], 107%; in test [12] it was 117%. Moreover, the residual activity was 45% in test [13], 55.6% in test [14] (Compound concentration 10.0 uM), 31% in test [14] (Compound concentration 30.0 uM) and 24% in test [14] (Compound concentration 100.0 uM).
As for `CCn1c(CNC(=O)c2ncc(C)nc2N)[n+](CC)c2ccc(C(=O)N(C)CN(C)C)cc21`, the residual activity was 41% in [1]; 96% in test [2]; 97% in test [3]; 100% in test [4]; 96% in test [5]; 97% in test [6]. The residual activity was 76% in test [7]; 99% in test [8]; 82% in test [9]; 35% in test [10]; 111% in [11]; 120% in [12]. Further, the residual activity in [13] was 63%; in test [14] (Compound concentration 10.0 uM), 39%.
